Some results are limits rather than exact numbers.

For the assay, the target named is USP1 (construct USP1 (I-785, GG670, 671AA)/UAF1 (I-677)-Flag) (Homo sapiens (Human), UniProt O94782, G670A/G671A). Kind of assay: Ubiquitin-Rhodamine 110 assay for USP1 activity. Format: biochemical. The note with it: USP1/UAF1 25 pM, Ub-Rh110 25 nM, 30 min preincubation. An outline of the steps: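 Ub-Rh110 (25 nM, ≪Km) cleavage read at ex 485/em 535 in Tris pH 8.0, CaCl2, GSH, Prionex, Triton X-100. The screen used 10 µM compound, 100 pM USP1/UAF1 and 45 min at RT.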
Chain of USP1 (construct USP1 (I-785, GG670, 671AA)/UAF1 (I-677)-Flag) (O94782 whole entry G670A/G671A): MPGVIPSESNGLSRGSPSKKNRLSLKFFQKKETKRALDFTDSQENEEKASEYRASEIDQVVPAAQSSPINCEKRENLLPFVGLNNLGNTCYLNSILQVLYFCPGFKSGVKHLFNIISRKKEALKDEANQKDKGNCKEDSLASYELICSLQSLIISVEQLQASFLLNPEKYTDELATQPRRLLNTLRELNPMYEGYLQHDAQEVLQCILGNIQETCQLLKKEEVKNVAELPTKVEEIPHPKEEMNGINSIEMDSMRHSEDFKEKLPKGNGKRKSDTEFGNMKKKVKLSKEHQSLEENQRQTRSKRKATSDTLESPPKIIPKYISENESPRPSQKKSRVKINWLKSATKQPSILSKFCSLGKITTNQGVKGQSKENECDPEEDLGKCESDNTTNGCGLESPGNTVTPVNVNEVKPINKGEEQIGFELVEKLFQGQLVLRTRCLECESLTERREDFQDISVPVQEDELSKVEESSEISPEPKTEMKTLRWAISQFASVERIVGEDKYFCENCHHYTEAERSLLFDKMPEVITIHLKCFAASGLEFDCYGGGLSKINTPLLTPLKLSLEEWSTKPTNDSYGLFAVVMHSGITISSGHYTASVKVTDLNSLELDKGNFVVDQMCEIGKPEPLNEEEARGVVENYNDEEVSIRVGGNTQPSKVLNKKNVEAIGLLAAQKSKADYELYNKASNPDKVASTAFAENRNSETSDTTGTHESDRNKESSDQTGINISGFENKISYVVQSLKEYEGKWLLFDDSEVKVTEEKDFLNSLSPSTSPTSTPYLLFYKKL
Chain of USP1 (construct USP1 (I-785, GG670, 671AA)/UAF1 (I-677)-Flag) (Q8TAF3 whole entry partner): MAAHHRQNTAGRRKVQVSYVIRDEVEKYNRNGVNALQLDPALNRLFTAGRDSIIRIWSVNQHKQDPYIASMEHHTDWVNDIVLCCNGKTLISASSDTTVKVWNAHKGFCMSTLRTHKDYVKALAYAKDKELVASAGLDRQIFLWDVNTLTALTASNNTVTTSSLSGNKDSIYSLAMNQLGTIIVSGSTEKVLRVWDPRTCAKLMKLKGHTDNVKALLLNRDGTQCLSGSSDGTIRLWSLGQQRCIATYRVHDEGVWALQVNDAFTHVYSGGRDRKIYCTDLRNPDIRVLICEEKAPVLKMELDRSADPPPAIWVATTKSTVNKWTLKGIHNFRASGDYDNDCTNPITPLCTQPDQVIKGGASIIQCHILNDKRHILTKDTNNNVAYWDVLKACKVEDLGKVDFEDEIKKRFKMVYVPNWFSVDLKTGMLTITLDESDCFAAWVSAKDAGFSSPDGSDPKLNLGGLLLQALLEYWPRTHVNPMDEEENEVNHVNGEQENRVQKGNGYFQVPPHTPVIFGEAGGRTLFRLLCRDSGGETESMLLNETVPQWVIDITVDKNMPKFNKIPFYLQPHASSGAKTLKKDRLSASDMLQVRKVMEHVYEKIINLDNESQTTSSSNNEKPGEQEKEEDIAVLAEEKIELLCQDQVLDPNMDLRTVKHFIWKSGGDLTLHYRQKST

Take `CN(C)CCOc1ncccc1-c1ncc2[nH]c(=O)n(Cc3ccc(-c4nc(C(F)(F)F)cn4C)cc3)c2n1` [Compound I-429, 2-(2-(2-(dimethylamino)ethoxy)pyridin-3-yl)-9-(4-(1-methyl-4-(trifluoromethyl)-1H-imidazol-2-yl)benzyl)-7,9-dihydro-8H-purin-8-one]: the IC50 (as a rule, the midpoint of a concentration-inhibition curve) was in the range of 200 to 2000 nM.

Turning to `CC(C)CNC(=O)c1ccc(Cn2c(=O)[nH]c3cnc(-c4ccccc4C(C)C)nc32)cc1` [Compound I-357, N-isobutyl-4-((2-(2-isopropylphenyl)-8-oxo-7,8-dihydro-9H-purin-9-yl)methyl)benzamide], the concentration for half-maximal inhibition (IC50) lay within 50 to 200 nM.

Consider `Cc1cc(COc2ccc(Cn3c(=O)n(C)c4cnc(-c5ccccc5C(C)C)nc43)cc2)no1` [Compound I-235, 2-(2-isopropylphenyl)-7-methyl-9-(4-((5-methylisoxazol-3-yl)methoxy)benzyl)-7,9-dihydro-8H-purin-8-one], for which the IC50 was 200 to 2000 nM.

Regarding `CC(C)c1ncccc1-c1ncc2c(n1)n(Cc1ccc(-c3nc(C4CC4)cn3C)cc1)c(=O)n2C` [Compound I-515, 9-(4-(4-cyclopropyl-1-methyl-1H-imidazol-2-yl)benzyl)-2-(2-isopropylpyridin-3-yl)-7-methyl-7,9-dihydro-8H-purin-8-one], the half-inhibitory concentration (IC50) lay in the range of 50 to 200 nM.

As to `CC(C)c1ccccc1-c1ncc2[nH]c(=O)n([C@H](C)c3ccc(-n4cccn4)cc3)c2n1` (single isomer, unassigned) [Compound I-158], the IC50 was less than 50 nM.

In turn, `CC(C)c1ccccc1-c1ncc2[nH]c(=O)n(Cc3ccc(C(=O)N4CCOCC4)cc3)c2n1` [Compound I-363, 2-(2-isopropylphenyl)-9-(4-(morpholine-4-carbonyl)benzyl)-7,9-dihydro-8H-purin-8-one] had an IC50 of 50 to 200 nM.

In turn, `Cc1cc(N2CCC2)nn1-c1ccc(Cn2c(=O)n(C)c3cnc(-c4cccnc4C(C)C)nc32)cc1` [Compound I-109, 9-(4-(3-(azetidin-1-yl)-5-methyl-1H-pyrazol-1-yl)benzyl)-2-(2-isopropylpyridin-3-yl)-7-methyl-7,9-dihydro-8H-purin-8-one] returned an IC50 of 50 to 200 nM.

Molecule `Cc1c(-c2ccc(Cn3c(=O)[nH]c4cnc(-c5ccccc5C(C)C)nc43)cc2)cnn1C` [Compound I-252, 9-(4-(1,5-dimethyl-1H-pyrazol-4-yl)benzyl)-2-(2-isopropylphenyl)-7,9-dihydro-8H-purin-8-one] gave an IC50 of 50 to 200 nM.

Molecule `Cn1cc(C(F)(F)F)nc1-c1ccc(Cn2c(=O)[nH]c3cnc(-c4ccccc4C4(O)CC4)nc32)cc1` [Compound I-526, 2-(2-(1-Hydroxycyclopropyl)phenyl)-9-(4-(1-methyl-4-(trifluoromethyl)-1H-imidazol-2-yl)benzyl)-7,9-dihydro-8H-purin-8-one] displayed an IC50 of less than 50 nM.

`CN(CC(F)(F)F)c1ncccc1-c1ncc2[nH]c(=O)n(Cc3ccc(-c4nc(C(F)(F)F)cn4C)cc3)c2n1` [Compound I-332, 2-(2-(methyl(2,2,2-trifluoroethyl)amino)pyridin-3-yl)-9-(4-(1-methyl-4-(trifluoromethyl)-1H-imidazol-2-yl)benzyl)-7,9-dihydro-8H-purin-8-one] came in with an IC50 of less than 50 nM.

`CC(C)c1ccccc1-c1ncc2[nH]c(=O)n(Cc3ccc(-n4nc(C#N)cc4C#N)cc3)c2n1` [Compound I-199, 1-(4-((2-(2-isopropylphenyl)-8-oxo-7,8-dihydro-9H-purin-9-yl)methyl)phenyl)-1H-pyrazole-3,5-dicarbonitrile] yielded an IC50 of less than 50 nM.

For the molecule `CN1CCN(c2ncccc2-c2ncc3[nH]c(=O)n(Cc4ccc(-c5nc(C(F)(F)F)cn5C)cc4)c3n2)CC1` [Compound I-328, 9-(4-(1-methyl-4-(trifluoromethyl)-1H-imidazol-2-yl)benzyl)-2-(2-(4-methylpiperazin-1-yl)pyridin-3-yl)-7,9-dihydro-8H-purin-8-one], the IC50 lay within 200 to 2000 nM.

`COC1CCCN(C(=O)c2ccc(Cn3c(=O)[nH]c4cnc(-c5ccccc5C(C)C)nc43)cc2)C1` (centres unmarked) [Compound I-401, 2-(2-isopropylphenyl)-9-(4-(3-methoxypiperidine-1-carbonyl)benzyl)-7,9-dihydro-8H-purin-8-one] gave an IC50 of 50 to 200 nM.

As for `COc1ccc(-c2cn(-c3ccc(Cn4c(=O)[nH]c5cnc(-c6ccccc6C(C)C)nc54)cc3)nn2)cc1` [Compound I-341, 2-(2-isopropylphenyl)-9-(4-(4-(4-methoxyphenyl)-1H-1,2,3-triazol-1-yl)benzyl)-7,9-dihydro-8H-purin-8-one], the IC50 is 200 to 2000 nM.

For `CC(C)c1ncccc1-c1ncc2[nH]c(=O)n(Cc3ccc(-n4nc(C(F)(F)F)cc4N4CCOCC4)cc3)c2n1` [Compound I-77, 2-(2-isopropylpyridin-3-yl)-9-(4-(5-morpholino-3-(trifluoromethyl)-1H-pyrazol-1-yl)benzyl)-7,9-dihydro-8H-purin-8-one], the IC50 was less than 50 nM.

Take `Cc1cc(C#N)n(-c2ccc(Cn3c(=O)[nH]c4cnc(-c5ccccc5C(C)C)nc43)cc2)n1` [Compound I-208, 1-(4-((2-(2-isopropylphenyl)-8-oxo-7,8-dihydro-9H-purin-9-yl)methyl)phenyl)-3-methyl-1H-pyrazole-5-carbonitrile]: the IC50 was less than 50 nM.

The molecule `CCC(C)Oc1ncccc1-c1ncc2[nH]c(=O)n(Cc3ccc(-c4nc(C(F)(F)F)cn4C)cc3)c2n1` (centres unmarked) [Compound I-417, 2-(2-(sec-butoxy)pyridin-3-yl)-9-(4-(1-methyl-4-(trifluoromethyl)-1H-imidazol-2-yl)benzyl)-7,9-dihydro-8H-purin-8-one] came in with an IC50 of less than 50 nM.

`O=c1[nH]c2cnc(-c3cccnc3OC(F)F)nc2n1Cc1ccc(-n2ccc(F)n2)cc1` [Compound I-88, 2-(2-(difluoromethoxy)pyridin-3-yl)-9-(4-(3-fluoro-1H-pyrazol-1-yl)benzyl)-7,9-dihydro-8H-purin-8-one] gave an IC50 of 200 to 2000 nM.

On to `CC(C)c1ccccc1-c1ncc2c(n1)n(Cc1ccc(OCCCN(C)C)cc1)c(=O)n2C` [Compound I-234, 9-(4-(3-(dimethylamino)propoxy)benzyl)-2-(2-isopropylphenyl)-7-methyl-7,9-dihydro-8H-purin-8-one], for which the IC50 is greater than 2000 nM.

`Cc1nc(-c2ccc(Cn3c(=O)n(C)c4cnc(-c5ccccc5C(C)C)nc43)cc2)c(C)s1` [Compound I-304, 9-(4-(2,5-dimethylthiazol-4-yl)benzyl)-2-(2-isopropylphenyl)-7-methyl-7,9-dihydro-8H-purin-8-one]: the half-inhibitory concentration (IC50) was less than 50 nM.

`COC[C@@H](C)Nc1ncccc1-c1ncc2[nH]c(=O)n(Cc3ccc(-c4nc(C(F)(F)F)cn4C)cc3)c2n1` [Compound I-319, (R)-2-(2-((1-methoxypropan-2-yl)amino)pyridin-3-yl)-9-(4-(1-methyl-4-(trifluoromethyl)-1H-imidazol-2-yl)benzyl)-7,9-dihydro-8H-purin-8-one] returned a half-inhibitory concentration (IC50) of 200 to 2000 nM.

`CC(C)c1ccccc1-c1ncc2c(n1)n(Cc1cccc(OCC3CC3)c1)c(=O)n2C` [Compound I-239, 9-(3-(cyclopropylmethoxy)benzyl)-2-(2-isopropylphenyl)-7-methyl-7,9-dihydro-8H-purin-8-one] yielded an IC50 greater than 2000 nM.

Take `CC(C)c1ccccc1-c1ncc2[nH]c(=O)n([C@@H](C)c3ccc(F)cc3)c2n1` [Compound I-179, (S)-9-(1-(4-fluorophenyl)ethyl)-2-(2-isopropylphenyl)-7,9-dihydro-8H-purin-8-one]: the IC50 lay within 50 to 200 nM.
